Reference: patent publication US5672604A, “1-phenylmethyl benzimidazole piperazine derivative” (Fabrica Espanola de Productos Quimicos y Farmaceuticos …, priority 1993, dated 1997)
Read-outs that look alike come from different tables or passages of the source.

Tests used:
[1] = molecular target: T1, 5HT3 receptor (Cavia porcellus, UniProt O70212); experiment: Inhibition of 2-methyl-serotonin induced contraction of guinea pig ileum
T1 construct: Guinea pig ileum fragments; from tissue; host or cells: guinea pig ileum fragments
T1 sequence (O70212 20-490): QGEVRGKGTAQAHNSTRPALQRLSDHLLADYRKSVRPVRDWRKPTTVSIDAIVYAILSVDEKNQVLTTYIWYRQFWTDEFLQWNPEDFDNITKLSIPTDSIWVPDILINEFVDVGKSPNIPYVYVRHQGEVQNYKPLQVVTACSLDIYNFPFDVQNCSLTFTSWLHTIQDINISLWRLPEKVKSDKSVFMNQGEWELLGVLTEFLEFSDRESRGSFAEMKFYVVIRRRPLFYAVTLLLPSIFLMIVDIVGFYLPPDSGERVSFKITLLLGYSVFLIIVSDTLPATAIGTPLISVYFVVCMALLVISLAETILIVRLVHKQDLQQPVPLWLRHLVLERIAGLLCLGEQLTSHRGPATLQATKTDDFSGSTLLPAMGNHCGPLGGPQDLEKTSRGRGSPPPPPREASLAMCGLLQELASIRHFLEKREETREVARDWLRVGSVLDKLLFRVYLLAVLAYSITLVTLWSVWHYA
Method: b) Guinea pig ileum fragments were submerged in K-H solution at 37° C. pH 7.4, oxygenated with carbogen (95% O2 and 5% CO2) and with an effective preload of 1-2 g. They remained in a stabilization period for 45-60 minutes. and the physiological solution was replaced every 15 minutes. After this time, contractions were induced every 15 minutes, adding 2-methyl-serotonin (final conc.: 10 μmol/l). […] The inhibition percentages and CI50 were subsequently calculated (Table I).

[2] = test system: serotonin 5HT3 receptor; experiment: Inhibition of serotonin-induced Bezold-Jarisch reflex in anaesthetised rat; format: in vivo, Wistar rats; settings: i.v., 5 minutes before serotonin
Method: After the arterial pressure (A.P.) and cardiac frequency (C.F.) parameters were stabilised, bradycardia reflex was induced by i.v. injection (the different dose of the drug tested) of 80 μv/kg (1 ml/kg) of serotonin dissolved in sterile physiological serum. Ten minutes later and after taking CF and AP back to constant levels, the products claimed herein were injected i.v. and after a lapse of five minutes, i.v. injection of the serotonin creatinine sulphate complex was repeated, quantifying the inhibition of the Bezold-Jarisch reflex.

[3] = molecular target: T2, 5HT3 (Rattus norvegicus, UniProt P35563); experiment: Bind 5HT3 cort-ento; format: binding; settings: read-out: Bind 5HT3 cort-ento pki (converted)
T2 construct: cort-ento; from tissue; host or cells: entorhinal cortex ('cort-ento')
T2 sequence (P35563 24-483): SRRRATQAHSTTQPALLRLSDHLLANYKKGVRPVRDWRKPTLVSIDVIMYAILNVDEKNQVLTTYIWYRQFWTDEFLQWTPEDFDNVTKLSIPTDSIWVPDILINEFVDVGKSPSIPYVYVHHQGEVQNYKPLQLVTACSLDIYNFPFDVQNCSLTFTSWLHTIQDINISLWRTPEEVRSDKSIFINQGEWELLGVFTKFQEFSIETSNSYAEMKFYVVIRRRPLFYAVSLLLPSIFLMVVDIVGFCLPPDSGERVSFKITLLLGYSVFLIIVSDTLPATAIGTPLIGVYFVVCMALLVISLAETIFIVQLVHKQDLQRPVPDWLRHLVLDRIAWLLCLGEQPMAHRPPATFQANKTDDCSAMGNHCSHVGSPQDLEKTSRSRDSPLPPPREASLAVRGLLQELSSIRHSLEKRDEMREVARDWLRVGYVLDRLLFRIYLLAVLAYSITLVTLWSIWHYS

[4] = guinea pig ileum, contraction by 2-methyl-serotonin 10 μmol/l, incubation 15 minutes, read-out: 2-me-5HT g.p. ileum CI50

Row | SMILES | IC50 [1, 4] [nM] | other results
1 | Cc1ccc2c(c1)nc(N1CCNCC1)n2Cc1ccccc1 [Product 1, 5-methyl-1-phenylmethyl-2-piperazinyl-1H-benzimidazole] | 28.3 | 
2 | Clc1ccc2c(c1)nc(N1CCNCC1)n2Cc1ccccc1 [Product 2] |  | IC50 [1]: 7.2 nM
3 | Oc1ccc2c(c1)nc(N1CCNCC1)n2Cc1ccccc1 [Product 5] | 116 | 
4 | Clc1cc2nc(N3CCNCC3)n(Cc3ccccc3)c2cc1Cl [Product 6] | 265 | 

Further lines, with some results ahead:

Row | IC50 [1, 4] [nM] | SMILES | other results
5 | 10.5 | O=[N+]([O-])c1ccc2c(c1)nc(N1CCNCC1)n2Cc1ccccc1 [Product 3] | B-J reflex rat-anaesth. DE50 [2]: 7.4 μg/kg iv; Ki [3]: 39.8 nM
6 | 1.65 | Fc1ccc2c(c1)nc(N1CCNCC1)n2Cc1ccccc1 [Product 4] | 
